Assay [1] has as its target T1, SARS-CoV-2 PLpro (nsp3 1564–1878) (Severe acute respiratory syndrome coronavirus 2, UniProt P0DTD1). As to the kind of experiment: biochemical. As to conditions: low concentration screen, read-out: % of control remaining. Also noted: FRET-quenched peptide (Pro3) cleavage by PLpro, 10 min pre-incubation, slope over 20 min, normalised to no-compound control.
Assay [2] has as its target T1, SARS-CoV-2 PLpro (nsp3 1564–1878). As to the kind of experiment: biochemical. Set-up: FRET-quenched peptide (Pro3) cleavage by PLpro, 10 min pre-incubation, slope over 20 min, normalised to no-compound control. The conditions noted are these: high concentration screen, read-out: % of control remaining.

Where a name gives a salt, the structure may show the parent alone. Read-outs that look alike come from different tables or passages of the source.

In the case of `N=C1S/C(=C\c2ccc(-c3ccc4c(c3)C(=O)NC4=O)o2)C(=O)N1c1ccc(Br)cc1` [Bioymifi], in assay [1] (Well no.=6390), the remaining activity at 1.25 µM turned out to be 96.5%. In addition, in assay [2] (Well no.=6390), the remaining activity at 3.75 µM amounted to 98%.

`OC(CCN1CCCCC1)(c1ccccc1)C1C[C@@H]2C=C[C@H]1C2` (stereo partly shown) [Biperiden (Hydrochloride)]: the remaining activity at 1.25 µM in assay [1] (Well no.=7434) stood at 97.8%. Further, the remaining activity at 3.75 µM in assay [2] (Well no.=7434) came out at 100%.

`CC[C@H](NC(=O)[C@H](C)NC)C(=O)N1C[C@@H](O)C[C@H]1Cc1c(-c2[nH]c3cc(F)ccc3c2C[C@@H]2C[C@H](O)CN2C(=O)[C@H](CC)NC(=O)[C@H](C)NC)[nH]c2cc(F)ccc12` [Birinapant]: in assay [1] (Well no.=6542), the remaining activity at 1.25 µM was determined as 95%. In addition, the remaining activity at 3.75 µM in assay [2] (Well no.=6542) came to 75.1%.

In the case of `O=C(/C=C/c1ccc(O)cc1)CC(=O)/C=C/c1ccc(O)cc1` [Bis demethoxycurcumin], in assay [1] (Well no.=3466), the remaining activity at 1.25 µM was 102%. Also, the remaining activity at 3.75 µM in assay [2] (Well no.=3466) came out at 103%.

As for `CC(=O)Oc1ccc(C(c2ccc(OC(C)=O)cc2)c2ccccn2)cc1` [Bisacodyl], in assay [1] (Well no.=2175), the remaining activity at 1.25 µM was found to be 105%. In addition, in assay [2] (Well no.=2175), the remaining activity at 3.75 µM was determined as 102%.

For `O=C(/C=C/c1ccc(O)cc1)CC(=O)/C=C/c1ccc(O)cc1` [Bisdemethoxycurcumin], the remaining activity at 1.25 µM in assay [1] (Well no.=6536) was determined as 97.5%. For the same compound, in assay [2] (Well no.=6536), the remaining activity at 3.75 µM came to 92.4%.

Consider `O=C1NC(=O)C(c2c[nH]c3ccccc23)=C1c1c[nH]c2ccccc12` [Bisindolylmaleimide IV], for which, in assay [1] (Well no.=2355), the remaining activity at 1.25 µM is 101%. For the same compound, the remaining activity at 3.75 µM in assay [2] (Well no.=2355) is 99.7%.

In the case of `CN(C)CCCn1cc(C2=C(c3c[nH]c4ccccc34)C(=O)NC2=O)c2ccccc21` [Bisindolylmaleimide I], the remaining activity at 1.25 µM in assay [1] (Well no.=2325) turned out to be 97.2%. Moreover, in assay [2] (Well no.=2325), the remaining activity at 3.75 µM was found to be 98.8%.

Regarding `CN1C(=O)C(c2c[nH]c3ccccc23)=C(c2c[nH]c3ccccc23)C1=O` [Bisindolylmaleimide V], in assay [1] (Well no.=2339), the remaining activity at 1.25 µM was found to be 92.9%. Further, the remaining activity at 3.75 µM in assay [2] (Well no.=2339) turned out to be 91.1%.

On to `CC(C)NCC(O)COc1ccc(COCCOC(C)C)cc1` (stereo not shown) [Bisoprolol], for which the remaining activity at 1.25 µM in assay [1] (Well no.=5109) is 96.8%. In assay [2] (Well no.=5109), the remaining activity at 3.75 µM was found to be 98.6%.

Take `Cc1c(N)nc([C@H](CC(N)=O)NC[C@H](N)C(N)=O)nc1C(=O)N[C@H](C(=O)N[C@H](C)[C@@H](O)[C@H](C)C(=O)N[C@H](C(=O)NCCc1nc(-c2nc(C(=O)NCCC[S+](C)C)cs2)cs1)[C@@H](C)O)[C@@H](O[C@@H]1O[C@@H](CO)[C@@H](O)[C@H](O)[C@@H]1O[C@H]1O[C@H](CO)[C@@H](O)[C@H](OC(N)=O)[C@@H]1O)c1cnc[nH]1` [Bleomycin sulfate]: the remaining activity at 1.25 µM in assay [1] (Well no.=3558) is 107%. Further, the remaining activity at 3.75 µM in assay [2] (Well no.=3558) was determined as 107%.

As to `Cc1c(N)nc([C@H](CC(N)=O)NC[C@H](N)C(N)=O)nc1C(=O)N[C@H](C(=O)N[C@H](C)[C@@H](O)[C@H](C)C(=O)N[C@H](C(=O)NCCc1nc(-c2nc(C(=O)NCCC[S+](C)C)cs2)cs1)[C@@H](C)O)[C@@H](OC1OC(CO)C(O)C(O)C1OC1OC(CO)C(O)C(OC(N)=O)C1O)c1cnc[nH]1` (stereo partly shown) [Bleomycin], in assay [1] (Well no.=1890), the remaining activity at 1.25 µM was 89.5%. Further, the remaining activity at 3.75 µM in assay [2] (Well no.=1890) turned out to be 91.9%.

For the compound `COc1cc2c(cc1O)C[C@H]1c3c(cc(O)c(OC)c3-2)CCN1C` [Boldine], the remaining activity at 1.25 µM in assay [1] (Well no.=3166) was 102%. Besides, the remaining activity at 3.75 µM in assay [2] (Well no.=3166) was found to be 101%.

In the case of `Cc1cc2c(OCC(CNC(C)(C)C)OC(=O)c3ccccc3)cccc2[nH]1` (stereo not shown) [Bopindolol], in assay [1] (Well no.=1892), the remaining activity at 1.25 µM turned out to be 96.2%. In addition, the remaining activity at 3.75 µM in assay [2] (Well no.=1892) was determined as 97.2%.

Consider `CC(C)C[C@H](NC(=O)[C@H](Cc1ccccc1)NC(=O)c1cnccn1)B(O)O` [Bortezomib], for which the figures for the remaining activity at 1.25 µM in assay [1] (Well no.=1768) and in assay [1] (Well no.=6302) were 99.9% and 98.1%, respectively. In addition, the remaining activity at 3.75 µM in assay [2] (Well no.=1768) amounted to 101%.

As for `COc1ccccc1Oc1c(NS(=O)(=O)c2ccc(C(C)(C)C)cc2)nc(-c2ncccn2)nc1OCCO` [Bosentan (hydrate)], in assay [1] (Well no.=6461), the remaining activity at 1.25 µM stood at 102%. Moreover, the remaining activity at 3.75 µM in assay [2] (Well no.=6461) was 101%.

`COc1ccccc1Oc1c(NS(=O)(=O)c2ccc(C(C)(C)C)cc2)nc(-c2ncccn2)nc1OCCO` [Bosentan Hydrate]: in assay [1] (Well no.=5273), the remaining activity at 1.25 µM worked out at 97.9%. In assay [2] (Well no.=5273), the remaining activity at 3.75 µM is 95.6%.

On to `COc1ccccc1Oc1c(NS(=O)(=O)c2ccc(C(C)(C)C)cc2)nc(-c2ncccn2)nc1OCCO` [Bosentan], for which the remaining activity at 1.25 µM in assay [1] (Well no.=2246) came out at 93.3%; in assay [1] (Well no.=7575) it was 98.7%. For the same compound, the remaining activity at 3.75 µM worked out at 95% in assay [2] (Well no.=2246) and 96.3% in assay [2] (Well no.=7575).

As to `COc1cc(Nc2c(C#N)cnc3cc(OCCCN4CCN(C)CC4)c(OC)cc23)c(Cl)cc1Cl` [Bosutinib], the remaining activity at 1.25 µM in assay [1] (Well no.=2883) was 97.8%. In addition, the remaining activity at 3.75 µM in assay [2] (Well no.=2883) came out at 100%.

Take `CSC(=S)NCc1c[nH]c2ccccc12` [Brassinin]: the remaining activity at 1.25 µM in assay [1] (Well no.=3801) came to 101%. In addition, the remaining activity at 3.75 µM in assay [2] (Well no.=3801) came out at 101%.

As for `C[C@H]1CCC/C=C/[C@@H]2C[C@H](O)C[C@H]2[C@H](O)/C=C/C(=O)O1` [Brefeldin A], the remaining activity at 1.25 µM in assay [1] (Well no.=3093) came out at 101%. Also, the remaining activity at 3.75 µM in assay [2] (Well no.=3093) is 100%.

For the compound `CC[N+](C)(C)Cc1ccccc1Br` [Bretylium tosylate], the remaining activity at 1.25 µM in assay [1] (Well no.=321) was 103%. Moreover, the remaining activity at 3.75 µM in assay [2] (Well no.=321) worked out at 101%.

As to `O=c1ccc2ccc(OCCCCN3CCN(c4cccc5sccc45)CC3)cc2[nH]1` [Brexpiprazole], the remaining activity at 1.25 µM in assay [1] (Well no.=6473) came to 99.5%. For the same compound, the remaining activity at 3.75 µM in assay [2] (Well no.=6473) was found to be 98.1%.

Consider `CCN[C@H]1CN(CCCOC)S(=O)(=O)c2sc(S(N)(=O)=O)cc21` [Brinzolamide], for which, in assay [1] (Well no.=5028), the remaining activity at 1.25 µM is 105%. In addition, in assay [2] (Well no.=5028), the remaining activity at 3.75 µM was 105%.

For `Cc1cc2c(F)c(Oc3ncnn4cc(OC[C@@H](C)OC(=O)[C@H](C)N)c(C)c34)ccc2[nH]1` [Brivanib alaninate (BMS-582664)], the remaining activity at 1.25 µM in assay [1] (Well no.=5049) came out at 102%. The remaining activity at 3.75 µM in assay [2] (Well no.=5049) was 104%.

For `O=c1[nH]c(=O)n([C@H]2C[C@H](O)[C@@H](CO)O2)cc1/C=C/Br` [Brivudine], in assay [1] (Well no.=8845), the remaining activity at 1.25 µM is 107%. Moreover, in assay [2] (Well no.=8845), the remaining activity at 3.75 µM stood at 98.3%.

On to `CN(Cc1cc(Br)cc(Br)c1N)C1CCCCC1` [Bromhexine], for which the remaining activity at 1.25 µM in assay [1] (Well no.=2177) came out at 98.4%. In addition, the remaining activity at 3.75 µM in assay [2] (Well no.=2177) was 102%.

`C=CCc1ccccc1OCC(O)CNC1(C)CCC(C(C)(C)NC(=O)CBr)CC1` (stereo not shown) [Bromoacetyl alprenolol menthane]: the remaining activity at 1.25 µM in assay [1] (Well no.=275) turned out to be 91.4%. In addition, the remaining activity at 3.75 µM in assay [2] (Well no.=275) was determined as 93.3%.

Take `C[N+](C)(C)CCOC(=O)CBr` [Bromoacetylcholine bromide]: the remaining activity at 1.25 µM in assay [1] (Well no.=181) worked out at 102%. Besides, the remaining activity at 3.75 µM in assay [2] (Well no.=181) was 98.9%.
